How the values were obtained:
[1] = Stability in the reaction solution as function of pH (FIG. 5); format: physicochemical
Procedure: The variation of (%)RCY of complex 1 and complex 2 over the time (30 min vs 18 h), at different conditions, is shown in FIG. 5. […] Alternatively, free PNP3OH was directly used.

[2] = Sera and homogenates stability; format: in vitro ADME, human and rat; conditions: human and rat sera, 37° C., 3 h
Procedure: Sera and Homogenates Stability.
The in vitro stability of complex 1, complex 2, complex 9 and complex 11 was evaluated by monitoring the RCP at different time points using the following procedures. In a propylene test tube 50 μl of purified [^99mTc(N)(PNP3OH)]-compound were added to: a) 450 μl of human serum, b) 450 μl of rat serum, c) 450 μl of homogenate of rat liver and d) 450 μl of homogenate of rat kidneys. The resulting mixture was incubated at 37° C. for 4 h.
The sample was loaded onto a cartridge, preconditioned with MeOH (1 ml) and equilibrated with water (1 ml), and rinsed with MeOH 5% (3 ml). The activity was eluted with a mixture of EtOH/saline 60% (1 ml). Each fraction was collected and the activity measured using a counter (Cobra II, Packard) to determinate the elution profile. 80% of the loaded activity was collected in the elution fraction. An aliquot of this solution (100 μl) was analyzed by HPLC to assess the degradation of the ^99mTc(N)-complexes (FIG. 11).

[3] = Challenge reactions (transchelation) with excess Cys, GSH or EDTA, RCP by HPLC; format: physicochemical; conditions: Cys 10 mM; for % RCP after incubation with excess Cys: 37° C.
Procedure: The transchelation studies were performed for some compounds monitoring by HPLC the radiochemical purity (RCP) of the complexes in presence of an excess of exchanging ligands over the time. The experiments were performed in triplicate.
Challenge experiments were carried out on the purified [^99mTc(N)(PNP3OH)]-labeled small size compounds (complex 1, complex 2, complex 9 and complex 10) using an excess of glutathione (GSH) or Cys. An aliquot (50 μl) of an aqueous stock solution of cysteine hydrochloride (10 mM; 1 mM) was added to a propylene test tube containing PB (250 μl, 0.2 M; pH 7.4), water (100 μl) and the selected [^99mTc(N)(PNP3OH)]-compound (100 μl). The mixture was vortexed and incubated at 37° C. for 24 h. A control reaction containing an equal volume of water, instead of cysteine hydrochloride, was studied in parallel. At 30 min, 1, 3 and 24 h, aliquots of the reaction mixture were withdrawn and analyzed by HPLC chromatography. A similar procedure was applied using GSH (50 μl, 10 mM) as challenge ligand.
For [^99mTc(N)(PNP3OH)(Cys-Gly-Lys-Gly-ApoMb)]^+ (“Cys-Gly-Lys-Gly” disclosed as SEQ ID NO: 1) additional experiments were conducted using EDTA (50 μl, 10 mM) as exchanging ligand.

[4] = Biodistribution in healthy rats; format: in vivo, Sprague-Dawley rats; conditions: for Biodistribution: Blood / Biodistribution: Brain / Biodistribution: Heart / Biodistribution: Intestine / Biodistribution: Kidneys / Biodistribution: Liver / Biodistribution: Lungs / Biodistribution: Muscle / Biodistribution: Spleen / Biodistribution: Stomach / Biodistribution: Urine: healthy rats
Procedure: Before injection, ^99mTc complexes were purified using a reversed-phase C18 Sep-Pack cartridge to remove the excess of unlabeled ligands. After purification, the activity recovered was further diluted with PBS to obtain a final solution that is <0.5% in EtOH content. The RCP and the stability of the purified complexes were evaluated prior to in vivo administration and for the succeeding 18 h.
Biodistribution in healthy rats. Biodistribution in healthy rats was performed on complex 1, complex 2 and complex 9 in order to evaluate their pharmacokinetic profile and elimination pathways as well as their resistance to in vivo metabolism. Female Sprague-Dawley rats weighing 180-200 g were anesthetized with an intramuscular injection of a mixture of Zoletil (40 mg/kg) and xylazine (2 mg/kg). A jugular vein was surgically exposed and 100 μl (300-370 kBq) of the solution containing the selected [^99mTc(N)(PNP3OH)]-compound was injected. The rats (n=3) were scarified by cervical dislocation at different times after injection. The blood was withdrawn from the heart with a syringe immediately after death and quantified. Organs were excised, rinsed in saline, weighed, and the activity was counted in a Nal well counter.

avidin = avidin (Gallus gallus, UniProt P02701); assay: Avidin binding; conditions: 1 and 24 h at 37° C.
Procedure: Avidin Binding. The preliminary evaluation of the binding characteristics of the two separate isomers of complex 11 to avidin was assessed according to the previously reported methods and compared with those of the corresponding already published (Bolzati, C.; Caporale, A.; Agostini, S.; Carta, D.; Cavazza-Ceccato, M.; Refosco, F.; Tisato, F.; Schievano, E.; Bandoli, G. Avidin-biotin system: a small library of cysteine biotinylated derivatives designed for the [^99mTc(N)(PNp)]^2+ metal fragment. Nucl. Med. Biol (2006), 34, 511-522).
The percentage of radiolabeled biotin bound, evaluated after 1 and 24 h of incubation along the saturation curves, is reported in FIG. 9.

[5] = Isomeric conversion over 24 h at 37° C.; format: physicochemical
Procedure: Before the experiments for both complex 11 and complex 9, the two isomers were isolated by HPLC and their isomeric conversion was assessed over 24 h at 37° C.
In addition, a faster b vs a change was noticed. Therefore, for the radiolabeled peptide the mixture of the two isomeric forms in ratio 70/30 was directly utilized for receptor affinity studies.

Chain of avidin (P02701 25-152, species assumed): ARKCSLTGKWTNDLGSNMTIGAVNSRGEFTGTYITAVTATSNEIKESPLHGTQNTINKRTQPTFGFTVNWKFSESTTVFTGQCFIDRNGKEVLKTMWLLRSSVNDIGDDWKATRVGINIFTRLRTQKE

## CCOC(=O)C(N)C[S][99Tc+]#[N].COCCN(CCP(CO)CO)CCP(CO)CO [Complex 2, [^99mTc(N)(PNP3OH)(CysOEt)]^+]
[1]; pH 7.4
  Stability in the reaction solution: stable within 18 h
[1]; pH 9
  Stability in the reaction solution: a progressive degradation was observed
[2]
  Sera stability: high sera stability
[3]; 3 h
  % RCP after incubation with excess Cys: 65.93%
[3]; 24 h
  % RCP after incubation with excess Cys: 23.32%
[3]; versus complex 1 and complex 11
  Stability toward Cys transchelation relative to neutral complexes: higher stability toward Cys transchelation
[4]; healthy animals, within the first 60 min p.i.
  Pharmacokinetic profile: blood clearance: rapid blood clearance
[4]; 2 min
  Biodistribution: Blood: 0.99 ± 0.18 % IA/g
  Biodistribution: Brain: 0.05 ± 0.00 % IA/g
  Biodistribution: Heart: 0.41 ± 0.07 % IA/g
  Biodistribution: Intestine: 0.39 ± 0.09 % IA/g
  Biodistribution: Kidneys: 5.38 ± 0.22 % IA/g
  Biodistribution: Liver: 0.99 ± 0.28 % IA/g
  Biodistribution: Lungs: 0.87 ± 0.17 % IA/g
  Biodistribution: Muscle: 0.19 ± 0.07 % IA/g
  Biodistribution: Spleen: 0.23 ± 0.01 % IA/g
  Biodistribution: Stomach: 0.49 ± 0.05 % IA/g
  Biodistribution: Urine: 16.32 ± 0.00 % IA/g
[4]; 10 min
  Biodistribution: Blood: 0.62 ± 0.11 % IA/g
  Biodistribution: Brain: 0.07 ± 0.01 % IA/g
  Biodistribution: Heart: 0.26 ± 0.01 % IA/g
  Biodistribution: Intestine: 1.35 ± 0.19 % IA/g
  Biodistribution: Kidneys: 6.20 ± 0.51 % IA/g
  Biodistribution: Liver: 1.56 ± 0.06 % IA/g
  Biodistribution: Lungs: 0.50 ± 0.04 % IA/g
  Biodistribution: Muscle: 0.17 ± 0.04 % IA/g
  Biodistribution: Spleen: 0.17 ± 0.00 % IA/g
  Biodistribution: Stomach: 0.44 ± 0.08 % IA/g
  Biodistribution: Urine: 25.65 ± 16.29 % IA/g
[4]; 30 min
  Biodistribution: Blood: 0.62 ± 0.06 % IA/g
  Biodistribution: Brain: 0.05 ± 0.03 % IA/g
  Biodistribution: Heart: 0.23 ± 0.02 % IA/g
  Biodistribution: Intestine: 1.26 ± 0.42 % IA/g
  Biodistribution: Kidneys: 6.43 ± 2.44 % IA/g
  Biodistribution: Liver: 1.85 ± 0.13 % IA/g
  Biodistribution: Lungs: 0.43 ± 0.00 % IA/g
  Biodistribution: Muscle: 0.21 ± 0.01 % IA/g
  Biodistribution: Spleen: 0.15 ± 0.00 % IA/g
  Biodistribution: Stomach: 0.32 ± 0.02 % IA/g
  Biodistribution: Urine: 17.06 ± 0.00 % IA/g
[4]; 60 min
  Biodistribution: Blood: 0.24 ± 0.06 % IA/g
  Biodistribution: Brain: 0.02 ± 0.01 % IA/g
  Biodistribution: Heart: 0.09 ± 0.03 % IA/g
  Biodistribution: Intestine: 2.92 ± 0.26 % IA/g
  Biodistribution: Kidneys: 2.63 ± 1.43 % IA/g
  Biodistribution: Liver: 1.83 ± 0.05 % IA/g
  Biodistribution: Lungs: 0.19 ± 0.05 % IA/g
  Biodistribution: Muscle: 0.07 ± 0.04 % IA/g
  Biodistribution: Spleen: 0.11 ± 0.05 % IA/g
  Biodistribution: Stomach: 0.20 ± 0.12 % IA/g
  Biodistribution: Urine: 40.14 ± 0.00 % IA/g
[4]; 120 min
  Biodistribution: Blood: 0.09 ± 0.09 % IA/g
  Biodistribution: Brain: 0.01 ± 0.01 % IA/g
  Biodistribution: Heart: 0.06 ± 0.06 % IA/g
  Biodistribution: Intestine: 6.23 ± 0.35 % IA/g
  Biodistribution: Kidneys: 1.67 ± 1.04 % IA/g
  Biodistribution: Liver: 0.29 ± 0.77 % IA/g
  Biodistribution: Lungs: 0.15 ± 0.14 % IA/g
  Biodistribution: Muscle: 0.04 ± 0.04 % IA/g
  Biodistribution: Spleen: 0.07 ± 0.04 % IA/g
  Biodistribution: Stomach: 0.31 ± 0.16 % IA/g
  Biodistribution: Urine: 20.10 ± 6.28 % IA/g

## [^99mTc(N)(PNP3OH)(Biot-Abu-Cys)] [Complex 11]
avidin
  Recognition by molecular target (avidin binding, FIG. 9): recognized by the corresponding molecular target
[5]
  Isomeric conversion a vs b: No variation of a vs b and vice versa
